Article PMC11249646, “Small-Molecule Disruptors of the Interaction between Calcium- and Integrin-Binding Protein 1 and Integrin αIIbβ3 as Novel Antiplatelet Agents” (ACS Pharmacology & Translational Science, 2024)
Like-named read-outs stand apart in the source and are kept apart here.

Assays:
Type in all cases: binding
[1] = target: T1, CIB1 and αIIb interaction (GST-CIB1 : F-αIIb peptide) (Homo sapiens, UniProt Q99828); assay: FP assay, 384-well format (screen); set-up: 384-well SCREEN Efficacy (%): concentration or dose not given beside the values; conditions: for 384-well SCREEN Efficacy (%) / 384-well SCREEN Confirm? / IC50: F-αIIb peptide; for 384-well SCREEN Confirm?: YES/NO; for IC50: read-out: 384-well SCREEN IC50
T1 construct: made in house; host or cells: BL-21 plus RIL cells (E. coli)
T1 sequence (Q99828 1-191): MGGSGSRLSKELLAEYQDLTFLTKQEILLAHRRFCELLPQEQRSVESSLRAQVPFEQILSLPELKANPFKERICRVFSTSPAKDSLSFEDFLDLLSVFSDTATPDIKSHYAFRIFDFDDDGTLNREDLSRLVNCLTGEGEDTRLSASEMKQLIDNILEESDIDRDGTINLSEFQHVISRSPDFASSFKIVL

[2] = target: T2, GST-CIB1 : F-scrambled peptide (Homo sapiens, UniProt Q99828); assay: FP scrambled-peptide counter screen, 1536-well format; conditions: for COUNTERSCREEN Confirm?: YES/NO call; for COUNTERSCREEN Curve Class: qHTS curve class
T2 construct: made in house; host or cells: BL-21 plus RIL cells (E. coli)
T2 sequence (Q99828 1-191): T1 sequence (Q99828 1-191)

[3] = target: T3, CIB1 and αIIb interaction (CIB1-GST : F-αIIb peptide) (Homo sapiens, UniProt Q99828); assay: FP assay, 1536-well qHTS format (primary and confirmatory screen); conditions: for CONFIRMATORY SCREEN Confirm?: YES/NO call; for CONFIRMATORY SCREEN Curve Class: qHTS curve class; for CONFIRMATORY SCREEN Curve Class / Curve Class: negative sign = inhibitory curve
T3 construct: made in house; host or cells: BL-21 plus RIL cells (E. coli)
T3 sequence (Q99828 1-191): T1 sequence (Q99828 1-191)

[4] = target: T2, GST-CIB1 : F-scrambled peptide; assay: FP scrambled-peptide counter screen, 384-well format; conditions: F-scrambled peptide; for 384-well COUNTERSCREEN Confirm?: *: Curve in opposite direction; for IC50: read-out: 384-well COUNTERSCREEN IC50
[5] = scrambled-peptide counterscreen
[6] = confirmatory screen, negative = inhibition
[7] = qHTS FP screen hits, Table S2, negative = inhibition
[8] = qHTS FP screen hits, Table S2, one class per curve where COUNT > 1
[9] = qHTS FP screen hits, Table S2, read-out: IC50
[10] = confirmatory screen, read-out: CONFIRMATORY SCREEN IC50
[11] = qHTS primary screen hits, Table S2, negative = inhibition
[12] = qHTS primary screen hits, Table S2, several classes where COUNT > 1
[13] = qHTS primary screen hits, Table S2, read-out: IC50
[14] = qHTS primary screen hits, Table S2

| SMILES | 384-well SCREEN Efficacy (%) [1] | 384-well SCREEN Confirm? [1] | IC50 [1] | COUNTERSCREEN Efficacy (%) [2, 5] | COUNTERSCREEN Confirm? [2, 5] | COUNTERSCREEN Curve Class [2, 5] | CONFIRMATORY SCREEN Confirm? ([3]; confirmatory screen) | CONFIRMATORY SCREEN Curve Class ([3]; confirmatory screen) | CONFIRMATORY SCREEN Efficacy (%) [3, 6] | Efficacy (%) [3, 7] | IC50 [3, 9] | 384-well COUNTERSCREEN Efficacy (%) [4] | 384-well COUNTERSCREEN Confirm? [4] | IC50 [4] | IC50 [3, 10] | Efficacy (%) [3, 11] | IC50 [3, 13] | Curve Class [3, 14] | further results |
| --- | --- | --- | --- | --- | --- | --- | --- | --- | --- | --- | --- | --- | --- | --- | --- | --- | --- | --- | --- |
| Cc1ccc(-c2csc(NC(=O)c3ccncc3NS(=O)(=O)c3ccc(C)cc3)n2)cc1.O=C(O)C(F)(F)F [NCGC00319008-01] | 46% | YES | 10.7 µM | 26% | YES | 4 | YES | -1.2 | -50% | -45% | 17.8 µM | 70% | YES* | 8.9 µM |  |  |  |  | Curve Class [3, 8]: -1.2 |
| NS(=O)(=O)c1ccc(Cc2c(-c3cccc(-c4ccccc4F)c3)nn(-c3nc(C(=O)O)cs3)c2O)cc1.O=C(O)C(F)(F)F [NCGC00356464-01] | 57% | YES | 22.4 µM | -32% | YES | 4 | YES | -1.2 | -74% |  |  | 34% | Inconclusive | 10 µM | 39.8 µM | -63% | 79.4 µM |  | Confirm and Selective? ([1]; selective toward αIIb: negative curve class and/or IC50 ratio of >3-fold and/or >2-fold efficacy vs scrambled peptide): Inconclusive; Curve Class [3, 12]: -2.2 |
| O=C(Nc1nc(-c2ccccc2)cs1)c1ccncc1NS(=O)(=O)c1ccccc1Cl.O=C(O)C(F)(F)F [NCGC00344943-01] | 32% | YES | 15.8 µM | 25% | YES | 4 | YES | -1.1 | -98% |  |  | 31% | YES | > 120 µM |  |  |  |  |  |
| CCOC(=O)c1ccc(O)c2ncc(-c3ccc(C(=N)N)cc3)cc12.O=C(O)C(F)(F)F [NCGC00241050-01] | 87% | YES | 20 µM | -18% | YES | 4 | YES | -2.2 | -52% | -77% | 44.7 µM | 77% | Inconclusive |  |  |  |  |  |  |
| N#Cc1cnc(NS(=O)(=O)c2ccc(NC(=O)Cc3ccc(Cl)c(Cl)c3)cc2)s1.O=C(O)C(F)(F)F [NCGC00250147-02] | 42% | YES | 7.9 µM | 20% | YES | 4 | YES | -1.2 | -48% | -40% | 5.6 µM | 25% | YES | > 120 µM | 6.3 µM |  |  |  | Curve Class [3, 8]: -1.2 |
| O=C(Nc1nc(-c2ccccc2)cs1)c1ccncc1NS(=O)(=O)c1ccc2ccccc2c1.O=C(O)C(F)(F)F [NCGC00345031-01] | 47% | YES |  |  | YES | 3 | YES | -1.4 |  |  |  | 81% | YES* | 28.2 µM | 20 µM | -53% | 39.8 µM | -2.2 | COUNTERSCREEN Efficacy (%) [2]: 0%; CONFIRMATORY SCREEN Efficacy (%) [3]: -84% |
| COc1ccc(C(=O)Nc2nc(-c3ccccc3)cs2)c(NS(=O)(=O)c2ccc(C)cc2)c1.O=C(O)C(F)(F)F [NCGC00262390-01] | 24% |  | > 120 µM | 92% | YES |  | YES | -1.2 | -60% | -22% | 17.8 µM | 102% |  | 31.6 µM | 11.2 µM |  |  |  | IC50 ([2]; scrambled-peptide counterscreen, read-out: COUNTERSCREEN IC50): 70.8 µM |
| Cc1ccc(S(=O)(=O)Nc2cc([N+](=O)[O-])ccc2C(=O)Nc2nc(-c3ccccc3)cs2)cc1.O=C(O)C(F)(F)F [NCGC00262992-01] | 135% | YES | > 120 µM | 42% | YES | 4 | YES | -1.1 | -97% |  |  | 115% |  | 79.4 µM | 5.6 µM | -34% | 10 µM | -2.4 |  |
| Cc1ccc(S(=O)(=O)Nc2cnccc2C(=O)Nc2nc(-c3cccc(C)c3)cs2)cc1.O=C(O)C(F)(F)F [NCGC00343524-02] | 42% | YES | 10.1 µM | 14% | YES | 4 | YES | -2.1 | -128% |  |  | 60% | YES* | 14.1 µM | 20 µM | -40% | 35.5 µM |  | Curve Class [3, 12]: -2.2 |
| O=C(O)C1=NC(C(=O)O)CC(/C=C/N2c3cc(O)c(OC4OC(CO)C(O)C(O)C4O)cc3CC2C(=O)O)=C1 (stereo not shown) [NCGC00346734-01] | 43% | YES | 39.8 µM | -18% | YES | 4 | YES | -2.2 | -66% |  |  | 10% | YES | > 120 µM | 50.1 µM | -25% | 24.1 µM | -2.4 |  |
